# Columns and labels:
# Human mTOR (FLAG-TOR) = molecular target: T1, Human mTOR (FLAG-TOR) (Homo sapiens, UniProt P42345); assay: Human mTOR kinase assay with purified enzyme, DELFIA format; type: biochemical; conditions: purified human mTOR enzyme, DELFIA format
# T1 construct: FLAG
# Outline: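 DELFIA readout: Eu-anti-P(T389)-S6K antibody (40 ng/mL, 1 h) on captured His6-S6K from the stopped reaction. Kinase step used purified FLAG-tagged human mTOR with test compound in HEPES (pH 7.4)/MnCl2/DTT buffer, 2 h at room temperature (linear 1–6 h), terminated by EDTA/EGTA.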
# PI3K [1] = molecular target: T2, PI3K (Homo sapiens, UniProt P42336); assay: Fluorescence polarization assay for PI3K; type: biochemical; conditions: PI3 Kinase α isoform, fluorescence polarization; read-out: PI3 Kinase α IC50
# T2 construct: PI3 Kinase α IC50; other: PI3 Kinase α; other: PI3 Kinase α isoform, fluorescence polarization
# T2 sequence (P42336 whole entry, canonical isoform): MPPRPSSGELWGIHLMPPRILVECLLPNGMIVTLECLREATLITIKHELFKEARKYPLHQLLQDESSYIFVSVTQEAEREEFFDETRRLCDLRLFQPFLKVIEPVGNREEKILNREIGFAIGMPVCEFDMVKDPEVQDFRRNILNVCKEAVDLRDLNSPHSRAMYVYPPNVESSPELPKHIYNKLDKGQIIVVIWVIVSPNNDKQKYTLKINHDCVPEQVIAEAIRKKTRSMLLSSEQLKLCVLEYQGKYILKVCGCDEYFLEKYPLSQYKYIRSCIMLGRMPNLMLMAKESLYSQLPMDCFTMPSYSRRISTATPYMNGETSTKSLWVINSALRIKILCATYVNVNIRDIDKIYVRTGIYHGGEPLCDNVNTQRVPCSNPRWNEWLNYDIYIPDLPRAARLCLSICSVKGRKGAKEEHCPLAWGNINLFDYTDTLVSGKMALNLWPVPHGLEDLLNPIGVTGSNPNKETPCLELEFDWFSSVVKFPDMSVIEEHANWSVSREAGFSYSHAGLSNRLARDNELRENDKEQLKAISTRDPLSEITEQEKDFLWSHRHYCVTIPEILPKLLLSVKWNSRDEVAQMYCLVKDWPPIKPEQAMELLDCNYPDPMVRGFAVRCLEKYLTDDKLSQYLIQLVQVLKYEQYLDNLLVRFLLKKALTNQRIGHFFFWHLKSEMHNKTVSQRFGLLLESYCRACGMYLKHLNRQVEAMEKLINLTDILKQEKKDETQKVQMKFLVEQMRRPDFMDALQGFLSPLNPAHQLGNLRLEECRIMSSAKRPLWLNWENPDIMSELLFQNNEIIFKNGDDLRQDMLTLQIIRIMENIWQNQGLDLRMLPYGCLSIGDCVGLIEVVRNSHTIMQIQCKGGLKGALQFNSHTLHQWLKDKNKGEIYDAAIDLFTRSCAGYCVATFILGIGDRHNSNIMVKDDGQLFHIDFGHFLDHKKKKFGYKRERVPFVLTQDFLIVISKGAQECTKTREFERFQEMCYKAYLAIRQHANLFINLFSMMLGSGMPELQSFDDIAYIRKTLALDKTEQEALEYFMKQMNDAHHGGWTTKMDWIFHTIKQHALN
# Outline: (§1)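 Fluorescence-polarization competition readout: after 30–60 min of PIP2/ATP turnover in 1% DMSO, a stop mix with GST-GRP (70 nM) and red probe (10 nM) was added.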
# PI3K [2] = molecular target: T3, PI3K (Homo sapiens, UniProt P48736); assay: Fluorescence polarization assay for PI3K; type: biochemical; conditions: PI3 Kinase γ isoform, fluorescence polarization; read-out: PI3 Kinase γ IC50
# T3 construct: PI3 Kinase γ IC50; other: PI3 Kinase γ; other: PI3 Kinase γ isoform, fluorescence polarization
# T3 sequence (P48736 whole entry, canonical isoform): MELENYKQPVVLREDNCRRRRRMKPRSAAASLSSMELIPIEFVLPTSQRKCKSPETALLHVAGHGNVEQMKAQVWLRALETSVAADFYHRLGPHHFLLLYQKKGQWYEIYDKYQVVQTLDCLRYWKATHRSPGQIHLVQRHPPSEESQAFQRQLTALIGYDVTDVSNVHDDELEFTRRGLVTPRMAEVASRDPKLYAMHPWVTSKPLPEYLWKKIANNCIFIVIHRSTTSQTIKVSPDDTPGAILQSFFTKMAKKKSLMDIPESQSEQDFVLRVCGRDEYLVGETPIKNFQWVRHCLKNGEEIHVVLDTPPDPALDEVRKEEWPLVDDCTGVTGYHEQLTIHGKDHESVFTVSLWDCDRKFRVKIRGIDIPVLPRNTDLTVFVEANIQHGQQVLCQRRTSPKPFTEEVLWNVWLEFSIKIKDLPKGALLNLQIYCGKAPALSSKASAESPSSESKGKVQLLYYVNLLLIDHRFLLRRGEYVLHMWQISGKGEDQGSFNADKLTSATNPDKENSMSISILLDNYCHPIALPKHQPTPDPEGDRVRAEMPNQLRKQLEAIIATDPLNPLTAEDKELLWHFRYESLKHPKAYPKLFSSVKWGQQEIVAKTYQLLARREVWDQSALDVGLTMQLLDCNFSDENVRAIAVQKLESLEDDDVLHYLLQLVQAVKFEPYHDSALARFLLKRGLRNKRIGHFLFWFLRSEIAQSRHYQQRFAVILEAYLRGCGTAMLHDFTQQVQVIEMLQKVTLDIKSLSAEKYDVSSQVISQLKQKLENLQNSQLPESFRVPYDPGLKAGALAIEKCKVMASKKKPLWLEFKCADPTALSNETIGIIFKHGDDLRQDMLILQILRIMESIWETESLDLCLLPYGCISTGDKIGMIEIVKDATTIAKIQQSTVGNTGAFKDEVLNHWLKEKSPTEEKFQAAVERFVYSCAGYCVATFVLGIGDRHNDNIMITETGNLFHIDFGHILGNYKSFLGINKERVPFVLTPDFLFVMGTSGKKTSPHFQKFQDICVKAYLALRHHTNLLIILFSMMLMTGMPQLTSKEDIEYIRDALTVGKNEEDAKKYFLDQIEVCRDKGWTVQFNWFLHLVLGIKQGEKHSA
# Outline: as §1
# prostate line LNCap = assay: In vitro cell culture growth assay (MTS), LNCap; type: cell-based; conditions: Homo sapiens, LNCaP, 72 h, LNCap cells, three days after drug treatment
# Outline: (§2)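 Cells were plated and, one day later, treated with inhibitors. Three days after treatment, viable cell density was measured by MTS dye conversion, read as absorbance at 490 nm. Effects are expressed as percent of control growth versus vehicle-treated cells on the same plate.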
# breast line MDA468 = assay: In vitro cell culture growth assay (MTS), MDA468; type: cell-based; conditions: Homo sapiens, 72 h, MDA468 cells, three days after drug treatment
# Outline: as §2
Compound,IC50 (Human mTOR (FLAG-TOR)) [nM],IC50 (PI3K [1]) [nM],IC50 (PI3K [2]) [nM],IC50 (prostate line LNCap) [nM],IC50 (breast line MDA468) [nM]
"COC(=O)N1CCC(n2ncc3c(N4C5CCC4COC5)nc(-c4ccc(NC(=O)Nc5ccncc5)cc4)nc32)CC1 [Example 362, methyl 4-[4-(3-oxa-8-azabicyclo[3.2.1]oct-8-yl)-6-{4-[(pyridin-4-ylcarbamoyl)amino]phenyl}-1H-pyrazolo[3,4-d]pyrimidin-1-yl]piperidine-1-carboxylate]",0.26,1930,2000,3,10
"COC(=O)N1CCC(n2ncc3c(N4C5CCC4COC5)nc(-c4ccc(NC(=O)Nc5ccc(N6CCN(C)CC6)cc5)cc4)nc32)CC1 [Example 363, methyl 4-{6-[4-({[4-(4-methylpiperazin-1-yl)phenyl]carbamoyl}amino)phenyl]-4-(3-oxa-8-azabicyclo[3.2.1]oct-8-yl)-1H-pyrazolo[3,4-d]pyrimidin-1-yl}piperidine-1-carboxylate]",0.545,1590,3240,< 1,1
"COC(=O)N1CCC(n2ncc3c(N4C5CCC4COC5)nc(-c4ccc(NC(=O)Nc5ccc(N6CCNCC6)cc5)cc4)nc32)CC1 [Example 364, methyl 4-[4-(3-oxa-8-azabicyclo[3.2.1]oct-8-yl)-6-(4-{[(4-piperazin-1-ylphenyl)carbamoyl]amino}phenyl)-1H-pyrazolo[3,4-d]pyrimidin-1-yl]piperidine-1-carboxylate]",0.44,1230,947,1,4
"COC(=O)N1CCC(n2ncc3c(N4C5CCC4COC5)nc(-c4ccc(NC(=O)Nc5ccc(N6CCN(C)CC6)nc5)cc4)nc32)CC1 [Example 365, methyl 4-{6-[4-({[6-(4-methylpiperazin-1-yl)pyridin-3-yl]carbamoyl}amino)phenyl]-4-(3-oxa-8-azabicyclo[3.2.1]oct-8-yl)-1H-pyrazolo[3,4-d]pyrimidin-1-yl}piperidine-1-carboxylate]",0.795,2590,4530,4,12
COC(=O)N1CCC(n2ncc3c(N4C5CCC4COC5)nc(-c4ccc(NC(=O)Nc5ccc(CN(C)C)cc5)cc4)nc32)CC1 [Example 366],0.795,2070,1500,10,20
"COC(=O)N1CCC(n2ncc3c(N4C5CCC4COC5)nc(-c4ccc(NC(=O)Nc5ccc(CN6CCN(C)CC6)cc5)cc4)nc32)CC1 [Example 367, methyl 4-[6-{4-[({4-[(4-methylpiperazin-1-yl)methyl]phenyl}carbamoyl)amino]phenyl}-4-(3-oxa-8-azabicyclo[3.2.1]oct-8-yl)-1H-pyrazolo[3,4-d]pyrimidin-1-yl]piperidine-1-carboxylate]",0.88,2390,1820,1,13
"COC(=O)N1CCC(n2ncc3c(N4C5CCC4COC5)nc(-c4ccc(NC(=O)Nc5ccc(OCCN(C)C)cc5)cc4)nc32)CC1 [Example 368, methyl 4-[6-{4-[({4-[2-(dimethylamino)ethoxy]phenyl}carbamoyl)amino]phenyl}-4-(3-oxa-8-azabicyclo[3.2.1]oct-8-yl)-1H-pyrazolo[3,4-d]pyrimidin-1-yl]piperidine-1-carboxylate]",0.885,1160,2000,1,4
"CN1CCN(C2CCC(n3ncc4c(N5CC6CCC(C5)O6)nc(-c5ccc(NC(=O)OCCO)cc5)nc43)CC2)CC1 (centres unmarked) [Example 369, 2-hydroxyethyl (4-{1-[4-(4-methylpiperazin-1-yl)cyclohexyl]-4-(8-oxa-3-azabicyclo[3.2.1]oct-3-yl)-1H-pyrazolo[3,4-d]pyrimidin-6-yl}phenyl)carbamate]",1.6,3140,11900,220,750
"CCNC(=O)Nc1ccc(-c2nc(N3CC4CCC(C3)O4)c3cnn(C4CCC(N5CCN(C)CC5)CC4)c3n2)cc1 (centres unmarked) [Example 370, 1-ethyl-3-(4-{1-[4-(4-methylpiperazin-1-yl)cyclohexyl]-4-(8-oxa-3-azabicyclo[3.2.1]oct-3-yl)-1H-pyrazolo[3,4-d]pyrimidin-6-yl}phenyl)urea]",0.985,2150,6510,130,400
"CN1CCN(C2CCC(n3ncc4c(N5CC6CCC(C5)O6)nc(-c5ccc(NC(=O)NCCF)cc5)nc43)CC2)CC1 (centres unmarked) [Example 371, 1-(2-fluoroethyl)-3-(4-{1-[4-(4-methylpiperazin-1-yl)cyclohexyl]-4-(8-oxa-3-azabicyclo[3.2.1]oct-3-yl)-1H-pyrazolo[3,4-d]pyrimidin-6-yl}phenyl)urea]",1.3,2490,8930,190,460
"CN1CCN(C2CCC(n3ncc4c(N5CC6CCC(C5)O6)nc(-c5ccc(NC(=O)NC6CC6)cc5)nc43)CC2)CC1 (centres unmarked) [Example 372, 1-cyclopropyl-3-(4-{1-[4-(4-methylpiperazin-1-yl)cyclohexyl]-4-(8-oxa-3-azabicyclo[3.2.1]oct-3-yl)-1H-pyrazolo[3,4-d]pyrimidin-6-yl}phenyl)urea]",0.395,2980,5340,110,420
"CN1CCN(C2CCC(n3ncc4c(N5CC6CCC(C5)O6)nc(-c5ccc(NC(=O)Nc6ccccc6)cc5)nc43)CC2)CC1 (centres unmarked) [Example 373, 1-(4-{1-[4-(4-methylpiperazin-1-yl)cyclohexyl]-4-(8-oxa-3-azabicyclo[3.2.1]oct-3-yl)-1H-pyrazolo[3,4-d]pyrimidin-6-yl}phenyl)-3-phenylurea]",0.385,217,1120,220,200
"CCn1ncc2c(N3CC4CCC(C3)O4)nc(-c3ccc(NC(=O)OC)cc3)nc21 [Example 375, methyl {4-[1-ethyl-4-(8-oxa-3-azabicyclo[3.2.1]oct-3-yl)-1H-pyrazolo[3,4-d]pyrimidin-6-yl]phenyl}carbamate]",15.5,4790,> 10000,700,1700
"O=C(Nc1ccc(-c2nc(N3CC4CCC(C3)O4)c3cnn(C4CCC5(CC4)OCCO5)c3n2)cc1)Nc1cccnc1 [Example 376, 1-{4-[1-(1,4-dioxaspiro[4.5]dec-8-yl)-4-(8-oxa-3-azabicyclo[3.2.1]oct-3-yl)-1H-pyrazolo[3,4-d]pyrimidin-6-yl]phenyl}-3-pyridin-3-ylurea]",0.125,270,4060,1,5
"COC(=O)Nc1ccc(-c2nc(N3CC4CCC(C3)O4)c3cnn(C4CCC5(CC4)OCCO5)c3n2)cc1 [Example 377, methyl {4-[1-(1,4-dioxaspiro[4.5]dec-8-yl)-4-(8-oxa-3-azabicyclo[3.2.1]oct-3-yl)-1H-pyrazolo[3,4-d]pyrimidin-6-yl]phenyl}carbamate]",2.5,7360,> 10000,140,1200
"Oc1cccc(-c2nc(N3C4CCC3COC4)c3cnn(-c4ccccc4)c3n2)c1 [Example 378, 3-[4-(3-oxa-8-azabicyclo[3.2.1]oct-8-yl)-1-phenyl-1H-pyrazolo[3,4-d]pyrimidin-6-yl]phenol]",11.5,407,1960,820,5800
